# Publication PMC7312375, “A Novel, Pan-PDE Inhibitor Exerts Anti-Fibrotic Effects in Human Lung Fibroblasts via Inhibition of TGF-β Signaling and Activation of cAMP/PKA Signaling” (International Journal of Molecular Sciences, 2020)
# Tests used:
# PDE3A = target: T1, PDE3A (Homo sapiens, UniProt Q14432); test: PDE-Glo assay, human recombinant PDE3A; type: biochemical; details: n.a. = not active; read-out: PDE-IC50 3A
# T1 construct: purchased SignalChem
# Experimental: Inhibitory activities of the investigated compounds against various subtypes of human recombinant (hr)PDEs, namely PDE1A, PDE1B, PDE1C, PDE3A, PDE3B, PDE4A, PDE4B, PDE4D, PDE7A, and PDE8A were assessed using a PDE-Glo^TM Assay Kit (Promega, Madison, WI, USA) according to the protocol provided by the manufacturer. Briefly, appropriate amounts of each enzyme (SignalChem, Richmond, B.C., Canada), diluted with PDE-Glo reaction buffer, were distributed on a 384-well plate (Thermo Scientific, Waltham, MA, USA). The investigated compounds were dissolved in DMSO, diluted with the same vehicle, and mixed with the reaction buffer at a v/v ratio of 1:5. Thereafter, 1 µL of these mixtures and 2.5 µL of the cAMP solution as a substrate were added. The final cAMP concentration was 0.05 µM. The samples were incubated for 10 min at 30 °C. […] Finally, 10 µL of PDE-Glo kinase reagent was added, and luminescence was measured using the POLARstar Omega plate reader (BMG LABTECH, Ortenberg, Germany). […] The relative activities (A, %) of all samples were calculated from the following equation: A = [(LUsample − LUblank)/(LUcontrol − LUblank)]·100%; where LUcontrol is the luminescence of a control sample in the absence of a PDE inhibitor, LUsample is a luminescence of an investigated sample in the presence of an inhibitor, and LUblank is a luminescence of a sample in the absence of enzyme (activity = 0). […]
# [1] = test system: TGF-β1-induced MRC-5 cells; test: In-cell ELISA of α-SMA and collagen I; type: cell-based, human; details: 10 µM, 48 h TGF-β1 5 ng/mL
# Experimental: The relative α-SMA and collagen I level in MRC-5 cells were measured using an in-cell ELISA assay. Study compounds (10 µM) were added 1 h before TGF-β1 treatment, and the content of both proteins in fibroblasts was determined after 48 h of incubation. Briefly, MRC-5 were fixed in methanol, permeabilized and blocked in 1% bovine serum albumin (BSA) with 0.1% Tween® 20 and then immunostained with primary mouse, monoclonal anti-α-SMA or anti-collagen type I antibodies (#A2547 or #SAB4200678, respectively, Sigma Aldrich, St. Louis, MO, USA), followed by secondary, anti-mouse, peroxidase-conjugated antibody (#A9044, Sigma Aldrich, St. Louis, MO, USA). The colorimetric reaction resulting from the addition of peroxidase substrate was stopped, and the absorbance was measured at 450 nm. The relative protein amount was normalized to the total cell number in each sample (Janus Green staining). The experiments were run four times in duplicates.
# T1 sequence (Q14432 whole entry): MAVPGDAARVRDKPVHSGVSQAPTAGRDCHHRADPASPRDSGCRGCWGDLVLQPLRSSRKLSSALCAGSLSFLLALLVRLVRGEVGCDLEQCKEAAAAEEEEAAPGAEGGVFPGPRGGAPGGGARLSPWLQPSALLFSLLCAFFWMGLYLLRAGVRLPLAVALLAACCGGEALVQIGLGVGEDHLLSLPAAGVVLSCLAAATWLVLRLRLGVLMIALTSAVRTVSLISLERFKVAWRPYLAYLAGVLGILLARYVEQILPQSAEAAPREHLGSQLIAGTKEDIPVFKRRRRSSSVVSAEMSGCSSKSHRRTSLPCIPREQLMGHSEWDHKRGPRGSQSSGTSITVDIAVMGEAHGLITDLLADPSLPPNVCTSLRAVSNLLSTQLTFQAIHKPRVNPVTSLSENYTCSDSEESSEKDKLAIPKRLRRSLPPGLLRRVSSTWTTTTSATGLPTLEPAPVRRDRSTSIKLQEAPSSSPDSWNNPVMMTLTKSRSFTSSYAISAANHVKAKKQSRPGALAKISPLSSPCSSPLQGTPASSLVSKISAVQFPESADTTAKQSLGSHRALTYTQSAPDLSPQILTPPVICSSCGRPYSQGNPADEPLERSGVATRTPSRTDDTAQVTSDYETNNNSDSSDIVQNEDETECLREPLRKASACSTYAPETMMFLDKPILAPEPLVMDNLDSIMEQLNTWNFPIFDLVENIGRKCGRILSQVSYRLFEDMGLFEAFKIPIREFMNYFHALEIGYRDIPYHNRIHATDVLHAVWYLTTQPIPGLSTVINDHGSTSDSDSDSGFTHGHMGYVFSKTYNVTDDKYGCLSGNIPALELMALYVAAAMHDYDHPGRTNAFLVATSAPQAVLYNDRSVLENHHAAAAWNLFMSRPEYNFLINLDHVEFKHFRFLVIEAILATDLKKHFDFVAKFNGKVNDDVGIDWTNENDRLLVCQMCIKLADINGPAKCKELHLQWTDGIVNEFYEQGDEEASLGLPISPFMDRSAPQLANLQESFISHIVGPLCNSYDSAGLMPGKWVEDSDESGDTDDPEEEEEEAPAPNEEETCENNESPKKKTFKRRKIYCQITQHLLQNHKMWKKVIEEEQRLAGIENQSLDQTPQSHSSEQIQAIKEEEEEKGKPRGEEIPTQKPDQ
IC50 (PDE3A),Structure (SMILES),TGF-β1-induced cellular content of α-SMA and collagen I [1]
125 nM,"Cn1c(=O)c2c(nc(NCc3ccco3)n2CCCC(=O)NN=Cc2ccc(O)cc2O)n(C)c1=O [Compound 832, N′-(2,4-dihydroxybenzylidene)-4-(8-((furan-2-ylmethyl)amino)-1,3-dimethyl-2,6-dioxo-1,2,3,6-tetrahydro-7H-purin-7-yl)butanehydrazide]",–
–,"CCCCOc1nc2c(c(=O)n(C)c(=O)n2C)n1CCCC(=O)Nc1cc(C(C)(C)C)ccc1O [Compound 145, 4-(8-butoxy-1,3-dimethyl-2,6-dioxo-1,2,3,6-tetrahydro-7H-purin-7-yl)-N-(5-(tert-butyl)-2-hydroxyphenyl)butanamide]",significantly reduced the levels of both proteins
